Experimental data as given in ChEMBL document CHEMBL1123525, “Synthesis and biological activities of 5-deaza analogues of aminopterin and folic acid” (1986).

Columns and labels:
P388 = assay: Compound was evaluated for inhibitory activity against P-388 leukemic cells in vitro; Range 1.8x10E-8 to 2x10E-7 M; assay type: functional; conditions: Mus musculus, read-out: ID50 (the source's name)
L1210 = assay: Compound was evaluated for inhibitory activity against L-1210 leukemic cells in vitro; Range 1.8x10E-8 to 2x10E-7 M; assay type: functional; conditions: Mus musculus, read-out: ID50 (the source's name)

- IC50 (P388): 200 nM
- IC50 (L1210): 200 nM
SMILES: Cc1c(CNc2ccc(C(=O)NC(CCC(=O)O)C(=O)O)cc2)cnc2nc(N)nc(N)c12 (configuration not stated)
